# Assay results from PubChem BioAssay (NCI).
#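 Here, GI50 denotes the concentration required for 50% inhibition of growth. TGI marks complete inhibition of growth.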
# Legend:
# Test in all cases: DTP human tumour cell line panel, 384-well format
# PC-3 prostate = test system: PC-3 prostate
# TK-10 renal = test system: TK-10 renal
# SNB-75 CNS = test system: SNB-75 CNS
# A549 NSCLC = test system: A549 NSCLC
# OVCAR-8 ovarian = test system: OVCAR-8 ovarian
# HCT-116 colon = test system: HCT-116 colon
# KM12 colon = test system: KM12 colon
# MDA-MB-468 breast = test system: MDA-MB-468 breast
# SF-539 CNS = test system: SF-539 CNS
# OVCAR-3 ovarian = test system: OVCAR-3 ovarian
# NCI-H23 lung = test system: NCI-H23 lung
# COLO 205 colon = test system: COLO 205 colon
# HCC-2998 colon = test system: HCC-2998 colon
# LOX IMVI melanoma = test system: LOX IMVI melanoma
# CCRF-CEM leukemia = test system: CCRF-CEM leukemia
# HT29 colon = test system: HT29 colon
# SK-MEL-28 melanoma = test system: SK-MEL-28 melanoma
# NCI-H322M lung = test system: NCI-H322M lung
# EKVX NSCLC = test system: EKVX NSCLC
# SF-268 CNS = test system: SF-268 CNS
# RPMI-8226 leukemia = test system: RPMI-8226 leukemia
# HS 578T breast = test system: HS 578T breast
# HOP-62 NSCLC = test system: HOP-62 NSCLC
# CAKI-1 renal = test system: CAKI-1 renal
# MALME-3M melanoma = test system: MALME-3M melanoma
# NCI-H460 NSCLC = test system: NCI-H460 NSCLC
# MDA-MB-231 breast = test system: MDA-MB-231 breast
# MDA-MB-435 melanoma = test system: MDA-MB-435 melanoma
# A498 renal = test system: A498 renal
# SK-MEL-5 melanoma = test system: SK-MEL-5 melanoma
# T-47D breast = test system: T-47D breast
# RXF 393 renal = test system: RXF 393 renal
# U251 glioblastoma = test system: U251 glioblastoma
# NCI-H226 lung = test system: NCI-H226 lung
# OVCAR-5 ovarian = test system: OVCAR-5 ovarian
# M14 melanoma = test system: M14 melanoma
# NCI-H522 lung = test system: NCI-H522 lung
# SK-OV-3 ovarian = test system: SK-OV-3 ovarian
# OVCAR-4 ovarian = test system: OVCAR-4 ovarian
# SN12C renal = test system: SN12C renal
# HL-60(TB) leukemia = test system: HL-60(TB) leukemia
# ACHN renal = test system: ACHN renal
# MOLT-4 leukemia = test system: MOLT-4 leukemia
# SNB-19 CNS = test system: SNB-19 CNS
# K-562 leukemia = test system: K-562 leukemia
# UO-31 renal = test system: UO-31 renal
# BT-549 breast = test system: BT-549 breast
# UACC-257 melanoma = test system: UACC-257 melanoma
# SR leukemia = test system: SR leukemia
# 786-0 renal = test system: 786-0 renal
# MCF7 breast = test system: MCF7 breast
# SW-620 colon = test system: SW-620 colon
# DU-145 prostate = test system: DU-145 prostate
# HCT-15 colon = test system: HCT-15 colon
# NCI/ADR-RES ovarian = test system: NCI/ADR-RES ovarian
# SF-295 CNS = test system: SF-295 CNS
# IGROV1 ovarian = test system: IGROV1 ovarian
# HOP-92 NSCLC = test system: HOP-92 NSCLC
structure (smiles),measurement,setting,value
CC1(O)CC(c2nc(-c3ccc4ccc(-c5ccccc5)nc4c3)c3c(N)nccn23)C1 (stereo unspecified),GI50,PC-3 prostate,10 µM
same,TGI,PC-3 prostate,22.8 µM
same,GI50,TK-10 renal,6.58 µM
same,TGI,TK-10 renal,19.3 µM
same,GI50,SNB-75 CNS,10.3 µM
same,TGI,SNB-75 CNS,22 µM
same,GI50,A549 NSCLC,10.3 µM
same,TGI,A549 NSCLC,23.3 µM
same,GI50,OVCAR-8 ovarian,10.2 µM
same,TGI,OVCAR-8 ovarian,22 µM
same,GI50,HCT-116 colon,7.55 µM
same,TGI,HCT-116 colon,20.7 µM
same,GI50,KM12 colon,3.97 µM
same,TGI,KM12 colon,13.8 µM
same,GI50,MDA-MB-468 breast,1900 nM
same,TGI,MDA-MB-468 breast,6.36 µM
same,GI50,SF-539 CNS,13 µM
same,TGI,SF-539 CNS,25.8 µM
same,GI50,OVCAR-3 ovarian,10.5 µM
same,TGI,OVCAR-3 ovarian,22.4 µM
same,GI50,NCI-H23 lung,2170 nM
same,TGI,NCI-H23 lung,14.9 µM
same,GI50,COLO 205 colon,209 nM
same,TGI,COLO 205 colon,11.3 µM
same,GI50,HCC-2998 colon,8.12 µM
same,TGI,HCC-2998 colon,20.7 µM
same,GI50,LOX IMVI melanoma,11.1 µM
same,TGI,LOX IMVI melanoma,23.2 µM
same,GI50,CCRF-CEM leukemia,5.63 µM
same,TGI,CCRF-CEM leukemia,17.9 µM
same,GI50,HT29 colon,306 nM
same,TGI,HT29 colon,16 µM
same,GI50,SK-MEL-28 melanoma,13.8 µM
same,TGI,SK-MEL-28 melanoma,26.7 µM
same,GI50,NCI-H322M lung,4.22 µM
same,TGI,NCI-H322M lung,17.4 µM
same,GI50,EKVX NSCLC,2740 nM
same,TGI,EKVX NSCLC,16.9 µM
same,GI50,SF-268 CNS,10.8 µM
same,TGI,SF-268 CNS,22.9 µM
same,GI50,RPMI-8226 leukemia,1320 nM
same,TGI,RPMI-8226 leukemia,4.12 µM
same,GI50,HS 578T breast,9.96 µM
same,TGI,HS 578T breast,21.6 µM
same,GI50,HOP-62 NSCLC,7.05 µM
same,TGI,HOP-62 NSCLC,20.3 µM
same,GI50,CAKI-1 renal,5.36 µM
same,TGI,CAKI-1 renal,18.3 µM
same,GI50,MALME-3M melanoma,2760 nM
same,TGI,MALME-3M melanoma,12.3 µM
same,GI50,NCI-H460 NSCLC,2790 nM
same,TGI,NCI-H460 NSCLC,15.5 µM
same,GI50,MDA-MB-231 breast,5.42 µM
same,TGI,MDA-MB-231 breast,18.9 µM
same,GI50,MDA-MB-435 melanoma,7.98 µM
same,TGI,MDA-MB-435 melanoma,20.8 µM
same,GI50,A498 renal,6.67 µM
same,TGI,A498 renal,19 µM
same,GI50,SK-MEL-5 melanoma,2430 nM
same,TGI,SK-MEL-5 melanoma,12 µM
same,GI50,T-47D breast,4.67 µM
same,TGI,T-47D breast,14.3 µM
same,GI50,RXF 393 renal,2760 nM
same,TGI,RXF 393 renal,9.01 µM
same,GI50,U251 glioblastoma,13 µM
same,TGI,U251 glioblastoma,25.8 µM
same,GI50,NCI-H226 lung,2860 nM
same,TGI,NCI-H226 lung,12.2 µM
same,GI50,OVCAR-5 ovarian,12.7 µM
same,TGI,OVCAR-5 ovarian,25.9 µM
same,GI50,M14 melanoma,10.5 µM
same,TGI,M14 melanoma,22.4 µM
same,GI50,NCI-H522 lung,5.74 µM
same,TGI,NCI-H522 lung,19 µM
same,GI50,SK-OV-3 ovarian,8.99 µM
same,TGI,SK-OV-3 ovarian,21 µM
same,GI50,OVCAR-4 ovarian,10.3 µM
same,TGI,OVCAR-4 ovarian,22.5 µM
same,GI50,SN12C renal,12.8 µM
same,TGI,SN12C renal,25.6 µM
same,GI50,HL-60(TB) leukemia,51.7 nM
same,TGI,HL-60(TB) leukemia,1610 nM
same,GI50,ACHN renal,5.3 µM
same,TGI,ACHN renal,22.4 µM
same,GI50,MOLT-4 leukemia,2890 nM
same,TGI,MOLT-4 leukemia,10.4 µM
same,GI50,SNB-19 CNS,13 µM
same,TGI,SNB-19 CNS,25.9 µM
same,GI50,K-562 leukemia,7.3 µM
same,TGI,K-562 leukemia,20.5 µM
same,GI50,UO-31 renal,6.8 µM
same,TGI,UO-31 renal,20.5 µM
same,GI50,BT-549 breast,5.8 µM
same,TGI,BT-549 breast,18.2 µM
same,GI50,UACC-257 melanoma,10.7 µM
same,TGI,UACC-257 melanoma,22.5 µM
same,GI50,SR leukemia,10.2 µM
same,TGI,SR leukemia,21.8 µM
same,GI50,786-0 renal,12.5 µM
same,TGI,786-0 renal,25.1 µM
same,GI50,MCF7 breast,182 nM
same,TGI,MCF7 breast,13.4 µM
same,GI50,SW-620 colon,3.85 µM
same,TGI,SW-620 colon,17.9 µM
same,GI50,DU-145 prostate,5.74 µM
same,TGI,DU-145 prostate,20.3 µM
same,GI50,HCT-15 colon,3.09 µM
same,TGI,HCT-15 colon,14.6 µM
same,GI50,NCI/ADR-RES ovarian,5.47 µM
same,TGI,NCI/ADR-RES ovarian,18.7 µM
same,GI50,SF-295 CNS,12.9 µM
same,TGI,SF-295 CNS,25.6 µM
same,GI50,IGROV1 ovarian,10.7 µM
same,TGI,IGROV1 ovarian,24.1 µM
same,GI50,HOP-92 NSCLC,2730 nM
same,TGI,HOP-92 NSCLC,15.3 µM
